Results published in patent US8211912B2, “Compositions and methods for effecting NAD+ levels using a nicotinamide phosphoribosyl tranferase inhibitor” (Gemin X Pharmaceuticals Canada, priority 2007, dated 2012).
Several values for one entry are separate records, joined by “and”; a condition that tells them apart may be missing. Equal values may be shown once.

What was measured:
[1] = system: FaDu cells (human hypopharyngeal squamous cancer); assay: Clonogenic survival with radiation therapy; format: cell-based; conditions: Compound 1 10 nM for 24 hours prior to 0-10 Gy
Procedure: FaDu cells (human hypopharyngeal squamous cancer) were obtained from American Type Culture Collection (Manassas, Va.) and cultured according to specifications. FaDu cells were seeded in 96-well plates at densities of 5,000 per well and incubated overnight at 37° C. to allow for cell attachment.
Cells were irradiated at room temperature using a ^137Cs unit (Gamma-cell 40 Extractor; Nordion International, Inc.; Ontario, Canada) at a dose rate of about 1.1 Gy/min. The cells were then administered 0, 2, 4, 6, 8, or 10 Gy of radiation. About 48 hours after radiation therapy, the drug-containing medium was replaced with fresh growth medium and the plates were incubated at 37° C. Nine days after seeding, colonies were fixed in 70% ethanol, stained with 10% methylene blue, and colonies of ≧50 cells were counted. The surviving fraction was determined as the ratio of the number of colonies in the treated sample to that of the non-treated control sample. Eight wells were set up for each condition and the experiment was performed three times and all data are reported as mean±SE.
Thus, Compound 1 sensitizes the head and neck squamous tumor forming cells to radiation therapy.

HCT-116 (Colon) = assay: Cell viability assay (72 h, ViaLight, relative ATP levels); format: cell-based
Procedure: (§1) IC50 value for the compound was determined in IM-9 and HCT-116 cells by ViaLight essay as described supra.

IM-9 (Multiple myeloma) = assay: as above; format: cell-based, human
Procedure: as §1

human NMPRT = human NMPRT (Homo sapiens, UniProt P43490); assay: Recombinant NMPRT coupled-enzyme fluorescence assay; format: biochemical; design: made in house; host or cells: E. coli BL21(DE3)pLysS; conditions: two independent experiments; Cheng-Prusoff; His-Flag tagged recombinant NMPRT
Procedure: Human NMPRT cDNA (Origene; Rockville, Md.) was cloned into the pET151 vector (Invitrogen; Carlsbad, Calif.). The resulting construct encodes a recombinant NMPRT protein with hexahistidine and FLAG epitope tags at the NH2-terminus. Four liters of BL21(DE3)pLysS bacteria (Invitrogen; Carlsbad, Calif.) at O.D. ˜0.6 in LB media were induced to express the NMPRT protein with 200 μM IPTG (Roche Diagnostics; Mannheim, Germany) for 3.5 hours with shaking (250 rpm) at 37° C. The bacterial cells were harvested by centrifugation at 6,000 g for 15 minutes at 4° C., the supernatant was discarded and the cells frozen at −20° C. […] The protein concentration was determined by Bradford assay (Bio-Rad; Hercules, Calif.).
The activity of recombinant NMPRT was assessed using a coupled-enzyme fluorescence assay based on the quantitation of NAD^+. […] Fluorescence was measured using a Tecan Safire plate reader (Tecan-US; Durham, N.C.) with an excitation wavelength of 560 nm and emission wavelength of 590 nm. The Km for nicotinamide was determined for every preparation of the enzyme and a titration of NAD^+ was run with every assay to ensure that measurements were within the linear range. […] The Ki was calculated using Prism version 4.0 (Graphpad Software, Inc; San Diego, Calif.) and the Cheng-Prusoff Equation. […]
as §1

[2] = system: HeLa cells transfected with pcFLAG-PNC1; assay: Compound 1 cytotoxicity in cells overexpressing yeast PNC1, ViaLight 72 h; conditions: pcFLAG-PNC1 vs pcDNA3, 72 h ViaLight
Procedure: Viability was measured after 72 hours by ViaLight assay. […] Each point represents the mean and error bars the SD of triplicate samples. […] The concentration of nicotinamide in RPMI 1640 media was […]. HeLa cells were transiently transfected with vector (pcDNA3) or a plasmid expressing a flag-tagged yeast PNC1 gene (pcFLAG-PNC1). […] Relative viability was assessed after 72 hours by ViaLight assay.

[3] = system: C666-1 (human undifferentiated nasopharyngeal cancer) cells; assay: Cell viability assay with radiation therapy; format: cell-based; conditions: increasing concentrations of Compound 1, 24 hours prior to radiation therapy
[4] = system: NAD^+ synthesis in HeLa cells and HeLa cell extracts; assay: Conversion of ^14C nicotinamide or ^14C nicotinic acid to ^14C-labeled NAD^+ (TLC); conditions: Compound 1 20 nM
Procedure: In vivo: HeLa cells (1×10^6 per sample) were plated 14-16 hours prior to the start of drug treatment. […] Cells were harvested by trypsinization and collected by centrifugation, and cell pellets resuspended in 50 μl of 10 mM NaH2PO4. To extract the radiolabeled nucleotide metabolites, the cells were lysed by 6 freeze-thaw cycles of liquid nitrogen/37° C. water bath. Precipitates were removed by centrifugation at 13,000 g for 20 mins.
In vitro: Untreated HeLa cells were harvested by trypsinization, collected by centrifugation and resuspended at 2.5×10^7 cells/mL in 10 mM NaH2PO4 buffer then cell extracts were made by 6 freeze-thaw cycles as above and cell extracts clarified by centrifugation at 23,000 g at 4° C. for 90 mins. […] The reaction was terminated by incubation at 100° C. for 2 mins. The radiolabeled nucleotides were separated by thin-layer chromatography and identified by comparison with radiolabeled standards of NAD^+, its precursors and metabolites (Moravek Biochemicals; Brea, Calif.). Approximately 10 μL of each sample was spotted onto Silica gel 60 plates (Merck KGaA, EMD chemicals Inc; Gibbstown, N.J.) and resolved in a solvent of isobutyric acid: ammonium hydroxide:water (66:1:33) overnight. The dried TLC plates were then exposed to BAS-MS screens (Fuji Photo Film Co. LTD; Kanagawa, Japan) for 2-3 days, scanned on a Typhoon Imager (Amersham; Piscataway, N.J.). […]

[5] = system: DMS-114 human small cell lung carcinoma cells; assay: Sensitization to DNA damaging chemotherapeutic agents, relative ATP viability, 3 days; format: cell-based; conditions: 0.75 nM Compound 1 alone, 3 days; one value per experiment series (row agent); 0.00075 µM
Procedure: Cells were plated in logarithmic growth phase at 500-20,000 cells per well in 96-well clear bottom plates (Corning; Corning, N.Y.) and cultured for 14 to 16 hours prior to the start of drug treatment. Serial dilutions of Compound 2 and Compound 1 were made in DMSO, diluted 1:50 in RPMI-1640 (Hyclone; Logan, Utah) and then added to tissue culture media at a final concentration of 0.2% DMSO. […] Relative ATP levels were determined by the bioluminescent measuring of cellular ATP levels in each culture well with the ViaLight-HS High Sensitivity Cytotoxicity and Cell Proliferation BioAssay Kit (Cambrex Bioproducts, Cat. No. LT07-311; Charles City, Iowa) according to manufacturer's instructions. Briefly, a cell permeabilizing reagent was added to each culture well in media at the time of viability determination, allowing free ATP to be released from viable cells in the culture. Addition of luciferase to the mixture catalyzes the release of light proportional to the amount of free ATP present, which can then be quantified in a Centro LB 960 luminometer (EG&G Berthold; Oak Ridge, Tenn.); the level of ATP is generally directly proportional to the viability of the cells.
Sigmoidal dose response curves were then generated using non-linear regression analysis of variable slope by Prism Version 4.00 for Windows (GraphPad Software, Inc.; San Diego, Calif.) and IC50 values calculated.
The IC50 values for the treatment with the DNA damaging agent were calculated relative to control cells that were treated with DMSO only.

human NMPRT, sequence (P43490 whole entry): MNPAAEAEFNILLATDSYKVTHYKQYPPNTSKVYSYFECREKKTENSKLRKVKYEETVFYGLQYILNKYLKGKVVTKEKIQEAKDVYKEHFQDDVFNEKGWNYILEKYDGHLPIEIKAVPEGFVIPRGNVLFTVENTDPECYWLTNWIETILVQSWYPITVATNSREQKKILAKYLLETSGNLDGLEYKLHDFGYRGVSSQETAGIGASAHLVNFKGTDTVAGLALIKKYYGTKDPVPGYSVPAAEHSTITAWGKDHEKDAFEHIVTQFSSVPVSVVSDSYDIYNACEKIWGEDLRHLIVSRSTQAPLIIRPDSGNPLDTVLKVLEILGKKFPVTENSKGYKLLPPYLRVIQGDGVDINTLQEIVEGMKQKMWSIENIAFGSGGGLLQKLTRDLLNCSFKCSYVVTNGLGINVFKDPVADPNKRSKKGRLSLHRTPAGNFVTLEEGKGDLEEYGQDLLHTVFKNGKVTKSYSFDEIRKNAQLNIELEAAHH

Substance: 4-[N′-cyano-N″-(6-(4-chlorophenoxy)-hexyl)-N-guanidino]-pyridine [Compound 1]
- Survival of FaDu cells with radiation therapy [1]: reduces survival of FaDu cells compared to radiation therapy alone
- IC50 (HCT-116 (Colon)): 2.3 ± 0.64 nM
- IC50 (IM-9 (Multiple myeloma)): 3.33 ± 0.66 nM
- Ki (human NMPRT): 1 nM
- Effect of yeast PNC1 overexpression on Compound 1 cytotoxicity [2]: rescued
- Cytotoxicity with radiation therapy [3]: higher level of cytotoxicity and an enhanced anticancer activity in comparison to radiation therapy alone
- NAD^+ synthesis from nicotinamide ([4]; ^14C nicotinamide): blocks
- NAD^+ synthesis from nicotinic acid ([4]; ^14C nicotinic acid): not
- Percent viability of DMS-114 cells, 0.75 nM Compound 1 (no DNA damaging chemotherapeutic agent) [5]: 47.7 ± 12% and 61.9 ± 16% and 57.9% and 53.20 ± 9.1%
